Source: PMC8113459, “Selective inhibition of cullin 3 neddylation through covalent targeting DCN1 protects mice from acetaminophen-induced liver toxicity” (Nature Communications, 2021)
Several values for one entry are separate records, joined by “and”; a condition that tells them apart may be missing. Equal values may be shown once.

Tests used:
DCN1 = DCN1 (Homo sapiens, UniProt Q96GG9); test: Intact-protein mass spectrometric analysis, Method B (DCN1); assay type: binding; conditions: 1 h incubation, 100 nM protein
Chain of DCN1 (Q96GG9 whole entry, the tested form may be a part): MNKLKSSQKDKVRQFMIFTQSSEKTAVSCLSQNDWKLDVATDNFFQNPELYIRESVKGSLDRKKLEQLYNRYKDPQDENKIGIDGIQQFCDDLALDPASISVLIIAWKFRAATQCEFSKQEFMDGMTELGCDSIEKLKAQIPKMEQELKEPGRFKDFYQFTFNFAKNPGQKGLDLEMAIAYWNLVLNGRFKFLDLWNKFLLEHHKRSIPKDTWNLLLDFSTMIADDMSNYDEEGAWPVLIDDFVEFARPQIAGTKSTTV
Experimental: Method B: Recombinant DCN1 or DCN3 protein (100 nM in 25 mM Tris 7.5, 200 mM NaCl, 1 mM DTT buffer) was incubated with 1.2-fold excess of the DCN1 inhibitors at 37 °C for 10 min, 1 h, or 3 h. Following incubation, the protein was analyzed by LC–MS (Agilent Q-TOF 6545) under the following conditions: fragmentor voltage, 300 V; skimmer voltage, 75 V; nozzle voltage, 100 V; sheath gas temperature, 350 °C; and drying gas temperature, 325 °C. MassHunter Qualitative Analysis software (Agilent) was used to analyze the data. Intact protein masses were obtained using the maximum entropy deconvolution algorithm. The mass spectrometry data in Supplementary Figs. 14–17 were generated by Method B.

HCT116 cells = test: Cell viability assay (WST-8), HCT116; assay type: cell-based, human; conditions: Homo sapiens, HCT-116; 72 h; cell line assigned from panel order; read-out: EC50, cell growth inhibition
In short: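 Cells (2000–3000 per well) were treated with serial dilutions of DCN1 inhibitors for 3 days, then incubated 1–3 h with WST-8 and absorbance read at 450 nm. Growth inhibition was sample-to-control absorbance ratio, with EC50 from fitted curves.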

[1] = molecular target: T1, cellular DCN1 protein in U2OS cells (Homo sapiens, UniProt Q96GG9); test: Cellular thermal shift assay (CETSA), DCN1; assay type: cell-based; conditions: 1 h, 53 °C
T1 construct: endogenous in cells; host or cells: U2OS
T1 sequence (Q96GG9 whole entry): as the sequence (Q96GG9 whole entry, the tested form may be a part) above
Experimental: (§1) CETSA was performed as previously described. The U2OS cells (5 × 10^5 per sample) were treated with compounds or with DMSO for 1 h, washed with PBS for three times, and dissolved in 50 µL PBS supplemented with protease inhibitor, followed by heating at 53 °C in a Mastercycler gradient (Eppendorf, New York, USA). Treated cells were then subjected to snap-freezing in liquid nitrogen and thawed on ice for three cycles. The protein level of DCN1 and DCN3 in equal amount of the supernatant was examined by western blot methods. GAPDH was used as a control. Results are representative of three independent experiments.

[2] = molecular target: T2, cellular DCN3 protein in U2OS cells (Homo sapiens, UniProt Q8IWE4); test: Cellular thermal shift assay (CETSA), DCN3; assay type: cell-based; conditions: concentrations up to 1000 nM
T2 construct: endogenous in cells; host or cells: U2OS
T2 sequence (Q8IWE4 whole entry): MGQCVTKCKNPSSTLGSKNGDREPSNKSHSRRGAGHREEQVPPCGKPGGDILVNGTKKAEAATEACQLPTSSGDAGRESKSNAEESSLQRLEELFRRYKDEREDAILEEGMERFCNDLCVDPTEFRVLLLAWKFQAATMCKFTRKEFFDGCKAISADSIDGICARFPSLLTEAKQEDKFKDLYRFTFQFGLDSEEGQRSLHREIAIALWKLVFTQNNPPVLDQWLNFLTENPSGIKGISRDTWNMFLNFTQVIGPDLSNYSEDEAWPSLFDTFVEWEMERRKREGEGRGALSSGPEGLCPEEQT
Experimental: as §1

[3] = tested on: APAP-induced liver injury; test: APAP-induced liver injury: alanine aminotransferase (ALT) level; assay type: in vivo, mouse; conditions: for reduction of the elevated ALT level induced by 400 mg/kg of APAP: 24 h time point
Experimental: (§2) The in vivo studies were performed under animal protocols (PRO00007499) and (PRO00006638) approved by the Institutional Animal Care & Use Committee of the University of Michigan, in accordance with the recommendations in the Guide for the Care and Use of Laboratory Animals of the National Institutes of Health. C57BL/6 WT mice (~8 weeks, male, normal chow) were purchased from the Jackson Laboratory and randomly divided into eight groups (8–9 mice per group) treated (IP) as follows: phosphate-buffered saline vehicle once per day for 3 days (G1), APAP alone a single dose at 400 mg/kg on day 1 (G2), DI-1859 alone 25 mg/kg once per day for 3 days (G3), DI-1859 alone 50 mg/kg once per day for 3 days (G4), pretreatment (1 day before the APAP administration) with DI-1859 at 25 mg/kg once per day for 3 days followed with APAP at 400 mg/kg on day (G5), pretreatment (1 day before the APAP administration) with DI-1859 at 50 mg/kg once per day for 3 days followed with APAP at 400 mg/kg on day (G6), APAP a single dose at 400 mg/kg (3 h before the first DI-1859 administration) followed with DI-1859 at 25 mg/Kg once per day for 3 days (G7), and APAP a single dose at 400 mg/kg (3 h before the first DI-1859 administration) followed with DI-1859 at 50 mg/Kg once per day for 3 days (G8).
(§3) To induce acute liver injury, animals received PBS or APAP (400 mg/kg, sigma, A7085) through I.P. injection at 12 p.m. and were sacrificed 48 h afterward. To examine the protective effect of DI-1859 (groups 5 and 6), animals were I.P. injected with compound for 3 consecutive days (9 a.m. on each day, starting 1 day before APAP administration). To examine the restorative effect of DI-1859 (groups 7 and 8), animals were I.P. injected with compound 3 h after APAP administration followed by two additional treatments (9 a.m. on the next 2 days). Body weight and blood glucose level measurement, along with blood sample collection, were performed at 12 p.m. on each day.
Blood glucose levels were determined using glucometers (Bayer Corp., Pittsburgh, PA). Plasma ALT activity was measured using an ALT reagent set (Pointe Scientific Inc., Canton, MI).

[4] = tested on: APAP-induced liver injury; test: APAP-induced liver injury: H&E histology of liver; assay type: in vivo, mouse
Experimental: as §2, §3
Liver paraffin sections were stained with H&E.

For C=C(CN1CCOCC1)C(=O)NC[C@@H](NC(=O)[C@H](Cc1nc2ccc(C(C)C)cc2s1)NC(=O)CC)C1CCCCC1 [DI-1548], the “covalent complex formation with DCN1” value (DCN1) was “rapid and complete formation”, the EC50 (HCT116 cells) was greater than 1000 nM and the “concentration as low as which the thermal stability of cellular DCN1 protein is enhanced” value [1] was no more than 0.3 nM. For the same molecule, the “times more potent than DI-591 and DI-1548DD in enhancing the thermal stability of cellular DCN1 protein” value [1] was greater than 1000 times and the “effect on the thermal stability of cellular DCN3 protein” value [2] was “no discernible effect”.

With C=C(CN(C)C)C(=O)NC[C@@H](NC(=O)[C@H](Cc1nc2ccc(C(C)C)cc2s1)NC(=O)CC)C1CCCCC1 [DI-1859] the “ALT(IU/L) mean” value ([3]; G3 PBS + Low, Time 0 hr) was 26.4101 IU/L, the “ALT(IU/L) mean” value ([3]; G3 PBS + Low, Time 24 hr) was 28.0781 IU/L and the “ALT(IU/L) mean” value ([3]; G4 PBS + High, Time 0 hr) was 28.6341 IU/L. The “ALT(IU/L) mean” value ([3]; G4 PBS + High, Time 24 hr) was 23.9081 IU/L, the “ALT(IU/L) mean” value ([3]; G5 APAP + Low-pre, Time 0 hr) was 32.3717 IU/L and the “ALT(IU/L) mean” value ([3]; G5 APAP + Low-pre, Time 24 hr) was 2856 IU/L. The “ALT(IU/L) mean” value ([3]; G5 APAP + Low-pre, Time 48 hr) was 171.99 IU/L, the “ALT(IU/L) mean” value ([3]; G6 APAP + H-pre, Time 0 hr) was 30.6419 IU/L and the “ALT(IU/L) mean” value ([3]; G6 APAP + H-pre, Time 24 hr) was 292.828 IU/L. The “ALT(IU/L) mean” value ([3]; G6 APAP + H-pre, Time 48 hr) was 49.2459 IU/L, the “ALT(IU/L) mean” value ([3]; G7 APAP + Low-post, Time 0 hr) was 30.889 IU/L and the “ALT(IU/L) mean” value ([3]; G7 APAP + Low-post, Time 24 hr) was 1341.82 IU/L. The “ALT(IU/L) mean” value ([3]; G7 APAP + Low-post, Time 48 hr) was 134.182 IU/L, the “ALT(IU/L) mean” value ([3]; G8 APAP + High-post, Time 0 hr) was 29.1592 IU/L and the “ALT(IU/L) mean” value ([3]; G8 APAP + High-post, Time 24 hr) was 1771.79 IU/L. The “ALT(IU/L) mean” value ([3]; G8 APAP + High-post, Time 48 hr) was 227.59 IU/L, the “reduction of the elevated ALT level induced by 400 mg/kg of APAP” value ([3]; prevention setting (G5), 25 mg/kg) was 20% and the “reduction of the elevated ALT level induced by 400 mg/kg of APAP” value ([3]; prevention setting (G6), 50 mg/kg) was 90% and > 90%. The “reduction of the APAP-induced ALT elevations” value ([3]; treatment setting (G7), 25 mg/kg after APAP) was ~ 50% and 50%, the “reduction of the APAP-induced ALT elevations” value ([3]; treatment setting (G8), 50 mg/kg after APAP) was ~ 50% and 50% and the “liver tissue damage by the compound alone” value ([4]; 25 and 50 mg/kg qD for 3 days (G3, G4), ALT and histology) was “caused no liver tissue damage”. The “effect on APAP-induced liver tissue damage (histology)” value (from here on “effect … (histology)”) ([4]; prevention setting, 25 mg/kg) was “largely abolished tissue distortion and greatly reduced acetaminophen-induced tissue damage”, the “effect … (histology)” value ([4]; prevention setting, 50 mg/kg) was “near completely prevented APAP-induced liver tissue damage” and the “effect … (histology)” value ([4]; treatment setting, 25 and 50 mg/kg) was “significantly reduced the liver damage induced by APAP”.
